One experiment relates to C-33-A. The experiment is described as follows: Cytotoxicity against human C33A cells after 48 hrs by SRB assay. It is filed as functional, cell-based.
The test system of a further experiment is KB. The experiment is described as follows: Cytotoxicity against human KB cells after 48 hrs by SRB assay. It is filed as functional, cell-based.
Another experiment has as its system A549. The experiment in a line: Cytotoxicity against human A549 cells after 48 hrs by SRB assay. In kind it is functional, cell-based. The following applies: A549, 48 h.
The test system of the next experiment is MCF7. The experiment in a line: Cytotoxicity against human MCF7 cells after 48 hrs by SRB assay. It is filed as functional, cell-based. The following applies: MCF7, 48 h.
A short description of experiment [1]: Cytotoxicity against mouse NIH/3T3 cells after 48 hrs by SRB assay. The following applies: NIH3T3, 48 h. In kind it is cell-based.

Consider 3 molecules from ChEMBL document CHEMBL1255532, “Cytotoxic cycloartane triterpene and rare isomeric bisclerodane diterpenes from the leaves of Polyalthia longifolia var. pendula” (Bioorg Med Chem Lett, 2010).

Molecules are shown by their SMILES. ≈ marks a conversion by molar mass, not a printed value.

With `COc1cccc2c1C(=O)c1c(O)c3c(c(O)c1C2=O)C[C@@](O)(C(=O)CO)C[C@@H]3O[C@H]1C[C@H](N)[C@H](O)[C@H](C)O1` [DOXORUBICIN], the IC50 in the experiment on C-33-A was 0.28 µg/mL (≈ 0.515 µM); with KB, 0.12 µg/mL (≈ 0.221 µM); in the experiment with A549, 0.33 µg/mL (≈ 0.607 µM); in the experiment with MCF7 it was 0.45 µg/mL (≈ 0.828 µM).
In the case of `C=C(C(C)C)[C@@H](O)C[C@@H](C)[C@H]1[C@@H](O)C[C@@]2(C)[C@@H]3CC[C@H]4C(C)(C)[C@@H](O)CC[C@@]45C[C@@]35CC[C@]12C` [LONGITRIOL], the half-maximal inhibitory concentration (IC50) is greater than 50 µg/mL in experiment [1]; 10 µg/mL (≈ 21.2 µM) in the experiment with C-33-A; 24.1 µg/mL (≈ 51 µM) in the experiment on KB; 13.2 µg/mL (≈ 27.9 µM) in the experiment on A549; 30.9 µg/mL (≈ 65.3 µM) with MCF7.
Consider `CC1=CCC[C@@H]2[C@@](C)(CCC3=CC(=O)N(/C=C(\CC[C@@]4(C)[C@H](C)CC[C@@]5(C)C(C)=CCC[C@H]45)CC(=O)O)C3=O)[C@H](C)CC[C@@]12C` [LONGIMIDE A], for which the 50% inhibitory concentration (IC50) in experiment [1] worked out at 44.7 µg/mL (≈ 72.3 µM); with C-33-A it was 4.12 µg/mL (≈ 6.67 µM); with KB it was 8.85 µg/mL (≈ 14.3 µM); in the experiment with A549, 10.1 µg/mL (≈ 16.4 µM); in the experiment on MCF7, 9.23 µg/mL (≈ 14.9 µM).
